Data from PubChem BioAssay AID1963846 (Molecular Pharmacology Branch, DTP, NCI, 2024).
pIC50: −log10 of the molar value.

Tested on: 454973-116-R2-J3-PDC complex spheroid viability
Assay: Anticancer human tumor 454973-116-R2-J3-PDC patient-derived pancreatic carcinoma cell line growth inhibition [POLQ]
Conditions: for pIC50: curve of first compound; for viability, T/C: stronger effect = lower value
Outline: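 Three-cell-type spheroids modelling solid tumor plus stroma served as the readout system; POL inhibitors were tested individually and in combination, concentration ranges set by clinical Cmax where known.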

[1] = second compound 0.0316 µM, first compound 0.0316 µM
[2] = second compound 0.0316 µM, first compound 0.1 µM
[3] = second compound 0.0316 µM, first compound 0.316 µM
[4] = second compound 0.0316 µM, first compound 1 µM
[5] = second compound 0.0316 µM, first compound 3.16 µM
[6] = second compound 0.0316 µM, first compound 10 µM
[7] = second compound 0.1 µM, first compound 0.0316 µM
[8] = second compound 0.1 µM, first compound 0.1 µM
[9] = second compound 0.1 µM, first compound 0.316 µM
[10] = second compound 0.1 µM, first compound 1 µM
[11] = second compound 0.1 µM, first compound 3.16 µM
[12] = second compound 0.1 µM, first compound 10 µM
[13] = second compound 0.316 µM, first compound 0.0316 µM
[14] = second compound 0.316 µM, first compound 0.1 µM
[15] = second compound 0.316 µM, first compound 0.316 µM
[16] = second compound 0.316 µM, first compound 1 µM
[17] = second compound 0.316 µM, first compound 3.16 µM
[18] = second compound 0.316 µM, first compound 10 µM
[19] = second compound 1 µM, first compound 0.0316 µM
[20] = second compound 1 µM, first compound 0.1 µM
[21] = second compound 1 µM, first compound 0.316 µM
[22] = second compound 1 µM, first compound 1 µM
[23] = second compound 1 µM, first compound 3.16 µM
[24] = second compound 1 µM, first compound 10 µM
[25] = second compound 3.16 µM, first compound 0.0316 µM
[26] = second compound 3.16 µM, first compound 0.1 µM
[27] = second compound 3.16 µM, first compound 0.316 µM
[28] = second compound 3.16 µM, first compound 1 µM
[29] = second compound 3.16 µM, first compound 3.16 µM
[30] = second compound 3.16 µM, first compound 10 µM
[31] = second compound 10 µM, first compound 0.0316 µM
[32] = second compound 10 µM, first compound 0.1 µM
[33] = second compound 10 µM, first compound 0.316 µM
[34] = second compound 10 µM, first compound 1 µM
[35] = second compound 10 µM, first compound 3.16 µM
[36] = second compound 10 µM, first compound 10 µM
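Note: spheroids exposed to drugs for seven days before measurement.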
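Throughout, for viability, T/C: percent viability relative to DMSO vehicle control wells taken as 100%.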

## CC(=O)O[C@H]1C(=O)[C@@]2(C)[C@H]([C@H](OC(=O)c3ccccc3)[C@]3(O)C[C@H](OC(=O)[C@H](O)[C@@H](NC(=O)c4ccccc4)c4ccccc4)C(C)=C1C3(C)C)[C@]1(OC(C)=O)CO[C@@H]1C[C@@H]2O + COC1C(OC(N)=O)C(O)C(Oc2ccc3c(O)c(NC(=O)c4ccc(O)c(CC=C(C)C)c4)c(=O)oc3c2C)OC1(C)C
Second compound 0.0316 µM
  pIC50: > 8.02
Second compound 0.1 µM
  pIC50: > 8.02
Second compound 0.316 µM
  pIC50: > 8.02
Second compound 1 µM
  pIC50: > 8.02
Second compound 3.16 µM
  pIC50: > 8.02
Second compound 10 µM
  pIC50: > 8.02
Second compound 0.0316 µM, first compound 0.00949 µM
  viability, T/C: 11.9%
Second compound 0.0316 µM, first compound 0.03 µM
  viability, T/C: 7.88%
Second compound 0.0316 µM, first compound 0.0949 µM
  viability, T/C: 6.54%
Second compound 0.0316 µM, first compound 0.3 µM
  viability, T/C: 5.33%
Second compound 0.0316 µM, first compound 0.949 µM
  viability, T/C: 6.41%
Second compound 0.0316 µM, first compound 3 µM
  viability, T/C: 7.66%
Second compound 0.1 µM, first compound 0.00949 µM
  viability, T/C: 12.8%
Second compound 0.1 µM, first compound 0.03 µM
  viability, T/C: 5.37%
Second compound 0.1 µM, first compound 0.0949 µM
  viability, T/C: 5.19%
Second compound 0.1 µM, first compound 0.3 µM
  viability, T/C: 5.57%
Second compound 0.1 µM, first compound 0.949 µM
  viability, T/C: 5.27%
Second compound 0.1 µM, first compound 3 µM
  viability, T/C: 3.86%
Second compound 0.316 µM, first compound 0.00949 µM
  viability, T/C: 10.7%
Second compound 0.316 µM, first compound 0.03 µM
  viability, T/C: 5.28%
Second compound 0.316 µM, first compound 0.0949 µM
  viability, T/C: 6.4%
Second compound 0.316 µM, first compound 0.3 µM
  viability, T/C: 4.53%
Second compound 0.316 µM, first compound 0.949 µM
  viability, T/C: 6.27%
Second compound 0.316 µM, first compound 3 µM
  viability, T/C: 5.12%
Second compound 1 µM, first compound 0.00949 µM
  viability, T/C: 13.2%
Second compound 1 µM, first compound 0.03 µM
  viability, T/C: 5.82%
Second compound 1 µM, first compound 0.0949 µM
  viability, T/C: 6.61%
Second compound 1 µM, first compound 0.3 µM
  viability, T/C: 5.98%
Second compound 1 µM, first compound 0.949 µM
  viability, T/C: 5.03%
Second compound 1 µM, first compound 3 µM
  viability, T/C: 5.86%
Second compound 3.16 µM, first compound 0.00949 µM
  viability, T/C: 11.1%
Second compound 3.16 µM, first compound 0.03 µM
  viability, T/C: 7.33%
Second compound 3.16 µM, first compound 0.0949 µM
  viability, T/C: 4.63%
Second compound 3.16 µM, first compound 0.3 µM
  viability, T/C: 3.97%
Second compound 3.16 µM, first compound 0.949 µM
  viability, T/C: 3.87%
Second compound 3.16 µM, first compound 3 µM
  viability, T/C: 4.77%
Second compound 10 µM, first compound 0.00949 µM
  viability, T/C: 12.8%
Second compound 10 µM, first compound 0.03 µM
  viability, T/C: 4.79%
Second compound 10 µM, first compound 0.0949 µM
  viability, T/C: 7.63%
Second compound 10 µM, first compound 0.3 µM
  viability, T/C: 5.47%
Second compound 10 µM, first compound 0.949 µM
  viability, T/C: 3.92%
Second compound 10 µM, first compound 3 µM
  viability, T/C: 5.39%

## COc1cc(C2c3cc4c(cc3C(OC3OC5COC(C)OC5C(O)C3O)C3COC(=O)C23)OCO4)cc(OC)c1O (stereo unspecified) + COC1C(OC(N)=O)C(O)C(Oc2ccc3c(O)c(NC(=O)c4ccc(O)c(CC=C(C)C)c4)c(=O)oc3c2C)OC1(C)C
Second compound 0.0316 µM
  pIC50: 5.80
Second compound 0.1 µM
  pIC50: 5.80
Second compound 0.316 µM
  pIC50: 5.74
Second compound 1 µM
  pIC50: 5.80
Second compound 3.16 µM
  pIC50: 5.83
Second compound 10 µM
  pIC50: 5.88
[1]
  viability, T/C: 97.7%
[2]
  viability, T/C: 108%
[3]
  viability, T/C: 92.7%
[4]
  viability, T/C: 66.8%
[5]
  viability, T/C: 25.3%
[6]
  viability, T/C: 9.55%
[7]
  viability, T/C: 100%
[8]
  viability, T/C: 111%
[9]
  viability, T/C: 93%
[10]
  viability, T/C: 67.8%
[11]
  viability, T/C: 23.5%
[12]
  viability, T/C: 11.8%
[13]
  viability, T/C: 106%
[14]
  viability, T/C: 107%
[15]
  viability, T/C: 93.8%
[16]
  viability, T/C: 81.2%
[17]
  viability, T/C: 20.7%
[18]
  viability, T/C: 9.08%
[19]
  viability, T/C: 116%
[20]
  viability, T/C: 97.9%
[21]
  viability, T/C: 95.6%
[22]
  viability, T/C: 70.4%
[23]
  viability, T/C: 21.9%
[24]
  viability, T/C: 10.6%
[25]
  viability, T/C: 118%
[26]
  viability, T/C: 101%
[27]
  viability, T/C: 96.6%
[28]
  viability, T/C: 63.6%
[29]
  viability, T/C: 24.7%
[30]
  viability, T/C: 9.62%
[31]
  viability, T/C: 122%
[32]
  viability, T/C: 94.7%
[33]
  viability, T/C: 90.6%
[34]
  viability, T/C: 61.4%
[35]
  viability, T/C: 21.4%
[36]
  viability, T/C: 8.32%

## COc1cccc2c1C(=O)c1c(O)c3c(c(O)c1C2=O)CC(O)(C(=O)CO)CC3OC1CC(N)C(O)C(C)O1 (stereo unspecified) + COC1C(OC(N)=O)C(O)C(Oc2ccc3c(O)c(NC(=O)c4ccc(O)c(CC=C(C)C)c4)c(=O)oc3c2C)OC1(C)C
Second compound 0.0316 µM
  pIC50: 7.25
Second compound 0.1 µM
  pIC50: 7.24
Second compound 0.316 µM
  pIC50: 7.19
Second compound 1 µM
  pIC50: 7.20
Second compound 3.16 µM
  pIC50: 7.18
Second compound 10 µM
  pIC50: 7.21
[1]
  viability, T/C: 71%
[2]
  viability, T/C: 23.6%
[3]
  viability, T/C: 21.3%
[4]
  viability, T/C: 8.86%
[5]
  viability, T/C: 0.64%
[6]
  viability, T/C: 0.19%
[7]
  viability, T/C: 69.5%
[8]
  viability, T/C: 27.6%
[9]
  viability, T/C: 22.3%
[10]
  viability, T/C: 8.87%
[11]
  viability, T/C: 0.52%
[12]
  viability, T/C: 0.98%
[13]
  viability, T/C: 74.3%
[14]
  viability, T/C: 29.4%
[15]
  viability, T/C: 25.5%
[16]
  viability, T/C: 8.79%
[17]
  viability, T/C: 0.27%
[18]
  viability, T/C: 0.29%
[19]
  viability, T/C: 78.3%
[20]
  viability, T/C: 26%
[21]
  viability, T/C: 23.6%
[22]
  viability, T/C: 11.8%
[23]
  viability, T/C: 3.28%
[24]
  viability, T/C: 2.08%
[25]
  viability, T/C: 76.4%
[26]
  viability, T/C: 30.7%
[27]
  viability, T/C: 22.9%
[28]
  viability, T/C: 9.68%
[29]
  viability, T/C: 0.46%
[30]
  viability, T/C: 0.39%
[31]
  viability, T/C: 76%
[32]
  viability, T/C: 24.7%
[33]
  viability, T/C: 24.8%
[34]
  viability, T/C: 10%
[35]
  viability, T/C: 1.62%
[36]
  viability, T/C: 0.41%
